Results: ChEMBL document CHEMBL4406842, “Synthesis and in vitro biological evaluation of novel derivatives of Flexicaulin A condensation with amino acid trifluoroacetate” (Eur J Med Chem, 2019)
Blank lines part the entries; values can stand above or below the compound they belong to. Activity calls are given as the source filed them. No cut-off for these calls is given here.

Tests used:
TE-1 [1] = assay: Antiproliferative activity against human TE1 cells assessed as reduction in cell viability incubated for 72 hrs by SRB assay; format: functional, cell-based; settings: for IC50: TE-1, 72 h
MCF7 = assay: Antiproliferative activity against human MCF7 cells assessed as reduction in cell viability incubated for 72 hrs by SRB assay; format: functional, cell-based; settings: MCF7, 72 h
A549 = assay: Antiproliferative activity against human A549 cells assessed as reduction in cell viability incubated for 72 hrs by SRB assay; format: functional, cell-based; settings: A549, 72 h
MGC-803 = assay: Antiproliferative activity against human MGC803 cells assessed as reduction in cell viability incubated for 72 hrs by SRB assay; format: functional, cell-based; settings: MGC-803, 72 h
TE-1 [2] = assay: Inhibition of colony formation in human TE1 cells at 1 umol/l incubated for 24 hrs supplemented with fresh medium and measured after 7 days by crystal violet staining based assay relative to control; format: functional
TE-1 [3] = assay: Inhibition of colony formation in human TE1 cells incubated for 24 hrs supplemented with fresh medium and measured after 7 days by crystal violet staining based assay; format: functional, cell-based
TE-1 [4] = assay: Induction of apoptosis in human TE1 cells assessed as early apoptotic cells at 0.75 umol/L incubated for 48 hrs by annexin V-FITC and propidium iodide staining based flow cytometry (reference value: 0.9 %); format: functional
TE-1 [5] = assay: Induction of apoptosis in human TE1 cells assessed as late apoptotic cells at 0.75 umol/L incubated for 48 hrs by annexin V-FITC and propidium iodide staining based flow cytometry (reference value: 2.8 %); format: functional
TE-1 [6] = assay: Induction of apoptosis in human TE1 cells assessed as early apoptotic cells at 1.5 umol/L incubated for 48 hrs by annexin V-FITC and propidium iodide staining based flow cytometry (reference value: 0.9 %); format: functional
TE-1 [7] = assay: Induction of apoptosis in human TE1 cells assessed as late apoptotic cells at 1.5 umol/L incubated for 48 hrs by annexin V-FITC and propidium iodide staining based flow cytometry (reference value: 2.8 %); format: functional
TE-1 [8] = assay: Induction of apoptosis in human TE1 cells assessed as early apoptotic cells at 3 umol/L incubated for 48 hrs by annexin V-FITC and propidium iodide staining based flow cytometry (reference value: 0.9 %); format: functional
TE-1 [9] = assay: Induction of apoptosis in human TE1 cells assessed as late apoptotic cells at 3 umol/L incubated for 48 hrs by annexin V-FITC and propidium iodide staining based flow cytometry (reference value: 2.8 %); format: functional
TE-1 [10] = assay: Induction of ROS production in human TE1 cells at 0.75 umol/L incubated for 48 hrs by DCFH-DA staining based flow cytometry (reference value: 2.4 %); format: functional
TE-1 [11] = assay: Induction of ROS production in human TE1 cells at 1.5 umol/L incubated for 48 hrs by DCFH-DA staining based flow cytometry (reference value: 2.4 %); format: functional
TE-1 [12] = assay: Induction of ROS production in human TE1 cells at 3 umol/L incubated for 48 hrs by DCFH-DA staining based flow cytometry (reference value: 2.4 %); format: functional
Homo sapiens [13] = species: Homo sapiens; assay: Activation of SAPK/JNK signalling pathway in human TE1 cells assessed as increase in ASK1 phosphorylation at 1.5 and 3 umol/L incubated for 48 hrs by Western blot analysis; format: cell-based
Homo sapiens [14] = species: Homo sapiens; assay: Activation of SAPK/JNK signalling pathway in human TE1 cells assessed as increase in MKK4 phosphorylation at 0.75 to 3 umol/L incubated for 48 hrs by Western blot analysis; format: cell-based
Homo sapiens [15] = species: Homo sapiens; assay: Activation of SAPK/JNK signalling pathway in human TE1 cells assessed as increase in JNK phosphorylation at 0.75 to 3 umol/L incubated for 48 hrs by Western blot analysis; format: cell-based
TE-1 [16] = assay: Induction of apoptosis in human TE1 cells assessed as increase in Bax expression at 0.75 to 3 umol/L incubated for 48 hrs by Western blot analysis; format: functional, cell-based
TE-1 [17] = assay: Induction of apoptosis in human TE1 cells assessed as decrease in Bcl2 expression at 0.75 to 3 umol/L incubated for 48 hrs by Western blot analysis; format: functional, cell-based
TE-1 [18] = assay: Induction of apoptosis in human TE1 cells assessed as increase in Bax-Bcl2 ratio at 0.75 to 3 umol/L incubated for 48 hrs by Western blot analysis; format: functional, cell-based
TE-1 [19] = assay: Induction of apoptosis in human TE1 cells assessed as increase in cleaved caspase-3 level at 0.75 to 3 umol/L incubated for 48 hrs by Western blot analysis; format: functional, cell-based
TE-1 [20] = assay: Induction of apoptosis in human TE1 cells assessed as increase in cleaved caspase-9 level at 0.75 to 3 umol/L incubated for 48 hrs by Western blot analysis; format: functional, cell-based
TE-1 [21] = assay: Induction of apoptosis in human TE1 cells assessed as increase in cleaved PARP level at 0.75 to 3 umol/L incubated for 48 hrs by Western blot analysis; format: functional, cell-based
GES1 = assay: Cytotoxicity against human GES-1 cells assessed as reduction in cell viability by SRB assay; format: cell-based
[22] = Solubility of compound in water; format: physicochemical; settings: buffer
TE-1 [23] = assay: Induction of apoptosis in human TE1 cells assessed as increase in Bad protein level at 0.75 to 3 umol/L incubated for 48 hrs by Western blot analysis; format: functional, cell-based
TE-1 [24] = assay: Induction of apoptosis in human TE1 cells assessed as increase in Bak protein level at 0.75 to 3 umol/L incubated for 48 hrs by Western blot analysis; format: functional, cell-based
TE-1 [25] = assay: Induction of apoptosis in human TE1 cells assessed as increase in NOXA protein level at 0.75 to 3 umol/L incubated for 48 hrs by Western blot analysis; format: functional, cell-based

Compound: C=C1C(=O)[C@]23[C@H](OC(=O)[C@@H](N)CCc4ccccc4)[C@H]1C[C@H](O)[C@H]2[C@]1(COC(C)=O)CCCC(C)(C)[C@H]1C[C@H]3OC.O=C(O)C(F)(F)F
- IC50 (TE-1 [1]): 2.98 µM
- IC50 (MCF7): 1.81 µM
- IC50 (A549): 3.35 µM
- IC50 (MGC-803): 1.06 µM
- solubility [22]: Soluble

Compound: C=C1C(=O)[C@]23[C@H](OC(=O)[C@@H](NC)C(C)C)[C@H]1C[C@H](O)[C@H]2[C@]1(COC(C)=O)CCCC(C)(C)[C@H]1C[C@H]3OC.O=C(O)C(F)(F)F
- IC50 (TE-1 [1]): 1.16 µM
- IC50 (MCF7): 3.2 µM
- IC50 (A549): 1.89 µM
- IC50 (MGC-803): 1.64 µM
- solubility [22]: Soluble

Compound: C=C1C(=O)[C@]23[C@H](OC(=O)CNC(=O)OC(C)(C)C)[C@H]1C[C@H](O)[C@H]2[C@]1(COC(C)=O)CCCC(C)(C)[C@H]1C[C@H]3OC
- IC50 (TE-1 [1]): 1.64 µM
- IC50 (MCF7): 1.7 µM
- IC50 (A549): 4.24 µM
- IC50 (MGC-803): 5.71 µM
- solubility [22]: Insoluble

Compound: C=C1C(=O)[C@]23[C@H](OC(=O)CCCCCN)[C@H]1C[C@H](O)[C@H]2[C@]1(COC(C)=O)CCCC(C)(C)[C@H]1C[C@H]3OC.O=C(O)C(F)(F)F
- IC50 (TE-1 [1]): 5.36 µM
- IC50 (MCF7): 3.68 µM
- IC50 (A549): 11.4 µM
- IC50 (MGC-803): 5.14 µM
- solubility [22]: Soluble

Compound: C=C1C(=O)[C@]23[C@H](OC(=O)[C@H](CCc4ccccc4)NC(=O)OC(C)(C)C)[C@H]1C[C@H](O)[C@H]2[C@]1(COC(C)=O)CCCC(C)(C)[C@H]1C[C@H]3OC
- IC50 (TE-1 [1]): 1.63 µM
- IC50 (MCF7): 2.18 µM
- IC50 (A549): 3.72 µM
- IC50 (MGC-803): 1.73 µM
- solubility [22]: Insoluble

Compound: C=C1C(=O)[C@]23[C@H](OC(=O)[C@@H](N)CCCN)[C@H]1C[C@H](O)[C@H]2[C@]1(COC(C)=O)CCCC(C)(C)[C@H]1C[C@H]3OC.O=C(O)C(F)(F)F.O=C(O)C(F)(F)F
- IC50 (TE-1 [1]): 2.71 µM
- IC50 (MCF7): 6.55 µM
- IC50 (A549): 8.04 µM
- IC50 (MGC-803): 5.28 µM
- solubility [22]: Soluble

Compound: C=C1C(=O)[C@]23[C@H](OC(=O)[C@@H](N)CCC)[C@H]1C[C@H](O)[C@H]2[C@]1(COC(C)=O)CCCC(C)(C)[C@H]1C[C@H]3OC.O=C(O)C(F)(F)F
- IC50 (TE-1 [1]): 1.72 µM
- IC50 (MCF7): 4.57 µM
- IC50 (A549): 1.64 µM
- IC50 (MGC-803): 4.94 µM
- solubility [22]: Soluble

The remaining compounds from weak to strong by IC50 (MCF7), led by results:

- IC50 (MCF7): 22.2 µM
- IC50 (A549): 5.86 µM
- IC50 (MGC-803): 9.52 µM
- solubility [22]: Soluble
Compound: C=C1C(=O)[C@]23[C@H](OC(=O)[C@@H](N)CCCCN)[C@H]1C[C@H](O)[C@H]2[C@]1(COC(C)=O)CCCC(C)(C)[C@H]1C[C@H]3OC.O=C(O)C(F)(F)F.O=C(O)C(F)(F)F
- IC50 (TE-1 [1]): 14.3 µM

- IC50 (MCF7): 11.5 µM
- IC50 (A549): 17.2 µM
- IC50 (MGC-803): 6.22 µM
- solubility [22]: Soluble
Compound: C=C1C(=O)[C@]23[C@H](OC(=O)[C@H]4CCCNC4)[C@H]1C[C@H](O)[C@H]2[C@]1(COC(C)=O)CCCC(C)(C)[C@H]1C[C@H]3OC.O=C(O)C(F)(F)F
- IC50 (TE-1 [1]): 6.55 µM

- IC50 (MCF7): 3.7 µM
- IC50 (A549): 5.9 µM
- IC50 (MGC-803): 2.81 µM
- solubility [22]: Insoluble
Compound: C=C1C(=O)[C@]23[C@H](OC(=O)[C@@H]4CCCN4C(=O)OC(C)(C)C)[C@H]1C[C@H](O)[C@H]2[C@]1(COC(C)=O)CCCC(C)(C)[C@H]1C[C@H]3OC
- IC50 (TE-1 [1]): 2.78 µM

- IC50 (MCF7): 3.49 µM
- IC50 (A549): 2.84 µM
- IC50 (MGC-803): 7.15 µM
- solubility [22]: Soluble
Compound: C=C1C(=O)[C@]23[C@H](OC(=O)[C@@H]4CCCCN4)[C@H]1C[C@H](O)[C@H]2[C@]1(COC(C)=O)CCCC(C)(C)[C@H]1C[C@H]3OC.O=C(O)C(F)(F)F
- IC50 (TE-1 [1]): 3.16 µM

- IC50 (MCF7): 3.1 µM
- IC50 (A549): 1.96 µM
- IC50 (MGC-803): 3.66 µM
- solubility [22]: Soluble
Compound: C=C1C(=O)[C@]23[C@H](OC(=O)[C@@H](N)CCSC)[C@H]1C[C@H](O)[C@H]2[C@]1(COC(C)=O)CCCC(C)(C)[C@H]1C[C@H]3OC.O=C(O)C(F)(F)F
- IC50 (TE-1 [1]): 1.6 µM

- IC50 (MCF7): 3.09 µM
- IC50 (A549): 4.81 µM
- IC50 (MGC-803): 4.85 µM
- solubility [22]: Insoluble
Compound: C=C1C(=O)[C@]23[C@H](OC(=O)[C@H](CC)NC(=O)OC(C)(C)C)[C@H]1C[C@H](O)[C@H]2[C@]1(COC(C)=O)CCCC(C)(C)[C@H]1C[C@H]3OC
- IC50 (TE-1 [1]): 1.74 µM

- IC50 (MCF7): 2.46 µM
- IC50 (A549): 3.15 µM
- IC50 (MGC-803): 1.51 µM
- solubility [22]: Insoluble
Compound: C=C1C(=O)[C@]23[C@H](OC(=O)[C@H](Cc4ccccc4)N(C)C(=O)OC(C)(C)C)[C@H]1C[C@H](O)[C@H]2[C@]1(COC(C)=O)CCCC(C)(C)[C@H]1C[C@H]3OC
- IC50 (TE-1 [1]): 1.16 µM

- IC50 (MCF7): 0.89 µM
- IC50 (A549): 1.2 µM
- IC50 (MGC-803): 1.5 µM
- solubility [22]: Soluble
Compound: C=C1C(=O)[C@]23[C@H](OC(=O)[C@H](Cc4ccccc4)NC)[C@H]1C[C@H](O)[C@H]2[C@]1(COC(C)=O)CCCC(C)(C)[C@H]1C[C@H]3OC.O=C(O)C(F)(F)F
- inhibition (TE-1 [1]): Dose-dependent effect
- IC50 (TE-1 [1]): 0.75 µM
- inhibition at 1 µM (TE-1 [2]): 100%
- inhibition (TE-1 [3]): Dose-dependent effect
- Activity (TE-1 [4]): 2.8%
- Activity (TE-1 [5]): 5.1%
- Activity (TE-1 [6]): 5%
- Activity (TE-1 [7]): 12%
- Activity (TE-1 [8]): 8.7%
- Activity (TE-1 [9]): 30.7%
- Activity (TE-1 [10]): 10.4%
- Activity (TE-1 [11]): 36.4%
- Activity (TE-1 [12]): 73.1%
- Activity (Homo sapiens [13]): Active
- Activity (Homo sapiens [14]): Active
- Activity (Homo sapiens [15]): Active
- Activity (TE-1 [16]): Active
- Activity (TE-1 [17]): Active
- Activity (TE-1 [18]): Active
- Activity (TE-1 [19]): Active
- Activity (TE-1 [20]): Active
- Activity (TE-1 [21]): Active
- Activity (GES1): Tde and Dose-dependent effect
- Activity (TE-1 [23]): Active
- Activity (TE-1 [24]): Active
- Activity (TE-1 [25]): Active
